Measurements as given in patent US20240262856A1, “NOVEL SPINOSYN COMPOUNDS” (priority 2021, published 2024).
≈ marks a conversion by molar mass, not a printed value. Read-outs that look alike come from different tables or passages of the source.

Assays:
[1] = test system: Ostrinia nubilalis larvae; assay: Insecticide efficacy on corn leaves dipped in compound solution and infested with L1 larvae (Henderson-Tilton method); format: in vivo; settings: for Emax: Ostrinia nubilalis; for insecticidal activity on Ostrinia nubilalis larvae (in words): compared with Spinosad / spinetoram; for % Efficacy 3 days: 3 days post infestation; for % Efficacy 6 days: 6 days post infestation
Procedure: Insecticide activities of the compounds of this invention were assessed in comparison with commercially available samples of spinosad (LGC (Dr. Ehrenstorfer); Product code: DRE-C16972830) and spinetoram (LGC (Dr. Ehrenstorfer); Product code: DRE-C16972770) Solutions of spinosyn compounds were prepared by adding 0.05% Tween 80, lowering pH to 5.95 and sonicating. Two concentrations of each compound were used, 0.1 μg/mL and 0.3 μg/mL, with each condition tested in four parallels.
Freshly collected corn leaves were dipped into the prepared solutions. After dipping leaves were left to dry at room temperature for 1 hour. Each dry leaf was then infested with 4 larvae (development stage L1), and the experimental device was incubated at 21° C.-23° C. for 24 h in order to optimize insect development. At two timings post infestation (3 days and 6 days), the insecticide efficacy is evaluated from the number of living larvae using the Henderson-Tilton method. Untreated control was integrated for normalization and validation of larvae health.

[2] = Kinetic solubility assay; format: physicochemical; settings: 24 hours at room temperature (25±2° C.)
Procedure: Solubility of the compounds of the invention was assessed using kinetic solubility assay and compared to solubility of butenyl spinosyn. Stock solutions of spinosyn compounds were prepared in DMSO at 10 mM concentration). 10 uL of the stock solutions were added into 490 of in K.S. 5.4 buffer of pH 5.4 (80 mM phosphoric acid, acetic acid, boric acid buffer, adjusted the pH to pH 5.4 with 1 N HCl and 1N NaOH) or K.S. 7.4 buffer with pH of 7.4 (80 mM phosphoric acid, acetic acid, boric acid buffer, adjusted the pH to pH 7.4 with 1 N HCl and 1N NaOH). The solutions were incubated with shaking at room temperature (25±2° C.) for 24 hours. 200 uL of each solution were then transferred into a new MultiScreen filter plate (Membrane of polycarbonate) and filtered by millipore vacuum manifold, and the filtrate was collected. The concentrations of tested compounds in the filtered samples were analyzed by HPLC analysis calibrated by a standard curve generated by injection of 3 standard solutions of the relevant compound with concentrations of 1, 20, 200 μM.

[3] = UV-stability of 5 mM solutions in acetonitrile, remaining compound by HPLC; format: physicochemical; settings: for share of remaining compound 0 h: start value for both aliquots; for Purity changing: 0 h to 10 h
Procedure: Synthesized spinosyn compounds were used to prepare 5 mM solutions in acetonitrile. The solution was divided in 2 aliquots and one aliquot was exposed to UV light at 254 nm and the other aliquot was incubated in the same conditions without UV light exposure. Quantities of remaining starting compounds were determined by HPLC after 0 h, 1 h, 5 h and 10 h.

[4] = test system: honey bees (Apis melifera carnica, Pollman 1879); assay: Single dose acute oral toxicity test on adult worker honey bees; format: in vivo
Procedure: Toxicity of the compounds of this invention towards honey bees (Apis melifera carnica, Pollman 1879) was assessed in comparison with commercially available samples of spinosad (LGC (Dr. Ehrenstorfer); Product code: DRE-C16972830) and the naturally produced compound butenyl spinosyn alpha 1. Solutions of spinosyn compounds were prepared in 100 mM ammonium acetate, pH=5, and later diluted in 50% (500 g/L) sucrose solution in water to final concentrations. Two final concentrations were used for each compound, 7.76 μmol/L and 15.53 μmol/L.
Single dose acute oral toxicity tests were conducted on adult worker bees according to previously described standard methods (Medrzycki at el., (2013)). Each compound and condition were tested in two parallels. Briefly, each parallel experiment consisted of 5 cages with 20 honey bees per cage. […] After uptake of the solutions honey bees were supplied with standard 50% sucrose solution and observed at 24 h and 48 h and the number of dead and live bees was estimated. Ammonium acetate solution with pH 5 was used as the negative control.

[5] = test system: honey bees (Apis melifera carnica, Pollman 1879); settings: previously established oral LD50 for honey bee; cited from earlier work
[6] = 72 h, read-out: % Efficacy 3 days, dose 0.1 μg a.i./ml, 3 days post infestation
[7] = 72 h, read-out: % Efficacy 3 days, dose 0.3 μg a.i./ml, 3 days post infestation
[8] = 144 h, read-out: % Efficacy 6 days, dose 0.1 μg a.i./ml, 6 days post infestation
[9] = 144 h, read-out: % Efficacy 6 days, dose 0.3 μg a.i./ml, 6 days post infestation
[10] = 25 °C, aqueous buffer, kinetic from dmso stock, K.S. 5.4 buffer pH 5.4, dose conc 200 μM, read-out: Kinetic Solubility pH = 5.4
[11] = 25 °C, aqueous buffer, kinetic from dmso stock, K.S. 7.4 buffer pH 7.4, dose conc 200 μM, read-out: Kinetic Solubility pH = 7.4
[12] = 0.078 nmol/bee oral single dose, 24 h after application
[13] = 0.078 nmol/bee oral single dose, 48 h after application
[14] = 0.155 nmol/bee oral single dose, 24 h after application
[15] = 0.155 nmol/bee oral single dose, 48 h after application

| Molecule | solubility kinetic at 24 h [2, 10] | solubility kinetic at 24 h [2, 11] | share of remaining compound 0 h [3] | Purity changing ([3]; under UV light at 254 nm) | share of remaining compound 1 h ([3]; under UV light at 254 nm) | share of remaining compound 5 h ([3]; under UV light at 254 nm) | share of remaining compound 10 h ([3]; under UV light at 254 nm) | Purity changing ([3]; without UV) | share of remaining compound 1 h ([3]; without UV) | share of remaining compound 5 h ([3]; without UV) | share of remaining compound 10 h ([3]; without UV) | % of surviving honey bees [4, 12] | % of surviving honey bees [4, 13] | % of surviving honey bees [4, 14] | % of surviving honey bees [4, 15] | % Efficacy 3 days ([1]; dose 0.1 μg a.i./ml) | % Efficacy 6 days ([1]; dose 0.1 μg a.i./ml) | % Efficacy 3 days ([1]; dose 0.3 μg a.i./ml) | % Efficacy 6 days ([1]; dose 0.3 μg a.i./ml) | also measured |
| --- | --- | --- | --- | --- | --- | --- | --- | --- | --- | --- | --- | --- | --- | --- | --- | --- | --- | --- | --- | --- |
| CC/C=C/[C@H]1CCC[C@H](OC2CCC(N(C)C)C(C)O2)[C@@H](C)C(=O)C2=C[C@@H]3[C@@H](C=C[C@]4(OC)C[C@@H](OC5OC(C)C(OC)C(OC)C5OC)C[C@@H]34)[C@@H]2CC(=O)O1 (stereo partly drawn) [Compound H1, 7-methoxy butenyl spinosyn α1] | 183 µM (≈ 144 µg/mL) | 77.1 µM (≈ 60.8 µg/mL) | 96.0% | −22.5% | 95.6% | 87.5% | 73.5% | +0.7% | 96.5% | 96.9% | 96.7% |  |  |  |  |  |  |  |  | Emax [1, 6]: 27%; Emax [1, 7]: 58%; Emax [1, 8]: 89%; Emax [1, 9]: 100%; insecticidal activity on Ostrinia nubilalis larvae (in words) [1]: extremely potent insecticidal activity |
| CC/C=C/[C@H]1CCC[C@H](OC2CCC([N+](C)(C)COC(=O)C(C)(C)C)C(C)O2)[C@@H](C)C(=O)C2=C[C@@H]3[C@@H](C=CC4(OC)C[C@@H](OC5OC(C)C(OC)C(OC)C5OC)C[C@@H]34)[C@@H]2CC(=O)O1 (stereo partly drawn) [Compound J1A-H1] |  |  |  |  |  |  |  |  |  |  |  | 98% | 73% | 86% | 26% |  |  |  |  |  |
| spinosad [SPN, reference compound] |  |  |  |  |  |  |  |  |  |  |  |  |  |  |  | 25% | 46% | 63% | 100% | LD50 [5]: 0.057 μg/bee |
| CC/C=C/[C@H]1CCC[C@H](OC2CCC(N(C)C)C(C)O2)[C@@H](C)C(=O)C2=C[C@@H]3[C@@H](C=C[C@]4(O)C[C@@H](OC5OC(C)C(OC)C(OC)C5OC)C[C@@H]34)[C@@H]2CC(=O)O1 (stereo partly drawn) [Compound A1, 7-hydroxy butenyl spinosyn α1] | 192 µM (≈ 149 µg/mL) | 187 µM (≈ 144 µg/mL) | 90.7% | −38.5% | 86.6% | 71.3% | 52.2% | +0.2% | 90.7% | 90.8% | 90.9% |  |  |  |  |  |  |  |  | Emax [1, 6]: 2%; Emax [1, 7]: 15%; Emax [1, 8]: 2%; Emax [1, 9]: 19% |
| CCC=CC1CCCC(OC2CCC(N(C)C)C(C)O2)C(C)C(=O)C2=CC3C(C=CC4CC(OC5OC(C)C(OC)C(OC)C5OC)CC43)C2CC(=O)O1 (stereo not drawn) [Butenyl spinosyn, butenyl spinosyn α1, reference compound] |  |  | 90.0% | −30.4% | 88.6% | 70.9% | 59.6% | −0.6% | 90.6% | 90.7% | 89.4% | 57% | 37% | 32% | 6% | 33% | 56% | 79% | 100% | toxicity to honey bees in acute oral toxicity test (in words) ([4]; compared to the derivatives provided by this invention): higher toxicity to honey bees; solubility kinetic at 24 h ([2]; K.S. 5.4 buffer pH 5.4, dose conc 200 μM, read-out: Kinetic Solubility pH = 5.4): 183.17 µM (≈ 139 µg/mL); solubility kinetic at 24 h ([2]; K.S. 7.4 buffer pH 7.4, dose conc 200 μM, read-out: Kinetic Solubility pH = 7.4): 3.52 µM (≈ 2.67 µg/mL) |
| CC[C@H]1CCC[C@H](OC2CCC(N(C)C)C(C)O2)[C@@H](C)C(=O)C2=C[C@@H]3[C@@H](C=C[C@]4(OC)C[C@@H](OC5OC(C)C(OC)C(OC)C5OC)C[C@@H]34)[C@@H]2CC(=O)O1 (stereo partly drawn) [Compound H1a] |  |  |  |  |  |  |  |  |  |  |  |  |  |  |  | 15% | 41% | 64% | 93% | insecticidal activity on Ostrinia nubilalis larvae (in words) [1]: lower insecticidal activity |
| spinetoram [Spinoteram, reference compound] |  |  |  |  |  |  |  |  |  |  |  |  |  |  |  | 58% | 81% | 85% | 96% |  |
| CC/C=C/[C@H]1CCC[C@H](OC2CCC([N+](C)(C)COC(=O)OC(C)C)C(C)O2)[C@@H](C)C(=O)C2=C[C@@H]3[C@@H](C=CC4(OC)C[C@@H](OC5OC(C)C(OC)C(OC)C5OC)C[C@@H]34)[C@@H]2CC(=O)O1 (stereo partly drawn) [Compound J7-H1] |  |  |  |  |  |  |  |  |  |  |  | 87% | 69% | 78% | 30% |  |  |  |  |  |
| CC/C=C/[C@H]1CCC[C@H](OC2CCC(N(C)C)C(C)O2)[C@@H](C)C(=O)C2=C[C@@H]3[C@@H](C=C[C@]4(OCC)C[C@@H](OC5OC(C)C(OC)C(OC)C5OC)C[C@@H]34)[C@@H]2CC(=O)O1 (stereo partly drawn) [Compound H2, 7-ethoxy butenyl spinosyn al] | 166 µM (≈ 133 µg/mL) | 7.68 µM (≈ 6.16 µg/mL) | 93.2% | −53.5% | 87.6% | 67.8% | 39.7% | −0.9% | 93.6% | 93.7% | 92.3% |  |  |  |  |  |  |  |  |  |
